Measurements from patent US8506945B2, “Polymers with structure-defined functions” (Smith & Nephew, PLC., priority 2001, dated 2013).

How the values were obtained:
[1] = target: Elastase; settings: Elastase (1.2 μg/ml), 20° C., 0.2M TRIS buffer
[2] = target: Thrombin (Homo sapiens, UniProt P00734); test: biochemical
[3] = test system: ovine meniscal chondrocytes P3; test: Cytotoxicity on chondrocyte culture, PicoGreen DNA assay; type: cell-based; settings: 48 h incubation, DNA by PicoGreen assay
Text: The high chemical reactivity of protease inhibitors represents toxicological problems both in vitro and potentially in vivo. […] DNA concentrations were obtained using a PicoGreen assay.

With `NCCc1ccc(S(=O)(=O)F)cc1` [AEBSF, 4-(2-aminoethyl)benzenesulphonylfluoride] the IC50 [1] was 312 µM, the IC50 [2] was 712 µM and the “concentration at which significant toxicity deviation from the vehicle alone begins” value [3] was 8000 ng/mL.
